The values below come from US20220096487A1 (priority 2019, published 2022).

As a reminder, the EC50 is the concentration at which the effect is half-maximal.

The test relates to HIV-1 clinical isolates (group M clades A-G, group O). In words: Antiviral activity in cell culture against panel of HIV-1 clinical isolates. It is filed as cell-based. The conditions noted are these: Human immunodeficiency virus 1; 3 in each group of M [clades A-G], and 3 in group O.

As to `C[C@@H]1CCO[C@H]2Cn3cc(C(=O)NCc4ccc(F)cc4F)c(=O)c(O)c3C(=O)N12` [Dolutegravir, dolutegravir], the EC50 lay within 0.02 to 2.14 nM.
